From PMC11939078, “TAK-994 mechanistic investigation into drug-induced liver injury” (Toxicological Sciences, 2025)

Key:
HepG2 = assay: Mito Stress Test (Seahorse, ECAR and OCR); format: cell-based, human; conditions: 3, 10, 30, and 100 μM
[1] = system: human liver microtissues + FFA; assay: Hepatotoxicity in steatosis liver model (free fatty acids); format: cell-based; conditions: 14 days
Procedure: Mono and co-culture model cells were exposed to TAK-994 (0.1, 0.3, 1, 3.16, 10, 31.6, or 100 μM in 0.5% DMSO) for 14 days (TAK-994 administered on Days 0, 5, and 9). The cell culture medium was supplemented with free fatty acids of 100 μM of Oleic acid and 66 μM of Palmitic acid. Six replicates were tested for each condition. The vehicle control was 0.5% DMSO, and the positive control was chlorpromazine (0.1, 0.3, 1, 3.16, 10, 31.6, or 100 μM in DMSO). Cellular ATP content was measured in the cell lysate on Day 14 of treatment. LDH release was measured in the cell supernatant on Days 5, 9, and 14 and normalized to lysed controls. Cellular triglyceride content was measured in the microtissues on Day 14.
(§1) Intracellular ATP content in model lysates was measured with the CellTiter-Glo® 2.0 Cell Viability Assay (Catalogue No. G9243, Promega). The Bioluminescent LDH Release Toxicity Assay Kit (Catalogue No. J2380, Promega) was used to assess extracellular LDH release and normalized to lysed controls. ATP, LDH, GSH, and triglycerides were measured according to internal technical operating procedures.

Hepatocyte spheroids = assay: Hepatocyte spheroid (monoculture, no nonparenchymal cells) cytotoxicity, cellular ATP; format: cell-based, human
Procedure: Toxicology of TAK-994 was assessed using lnSphero’s 3D lnSight Human Liver models, based on N-acetyl-L-cysteine causality assay, glutathione depletion assay, and lipopolysaccharide (LPS)-sensitization assay. Hepatotoxicity was assessed in 7- and 14-day mono and co-culture models, in which cells were exposed to TAK-994 (0.1, 0.3, 1, 3.16, 10, 31.6, or 100 μM) […].
The test system was Human 3D InSight Liver Models, production ID hLiMT_589, cryopreserved primary human hepatocytes (Lot IPDH_18; single donor) in monoculture or in co-culture with cryopreserved primary human nonparenchymal cells (Lot IPHN_17; single donor). Human liver microtissues are composed of roughly 1000 hepatocytes and 1000 non-parenchymal live cells. Non-parenchymal liver cell fractions are expected to be composed of Kupffer cells and liver endothelial cells however, these were not identified.
Mono and co-culture model cells were exposed to TAK-994 (0.1, 0.3, 1, 3.16, 10, 31.6, or 100 μM in 0.5% DMSO) for 7 days (TAK-994 administered on Days 0 and 4) or 14 days (TAK-994 administered on Days 0, 5, and 9). Six replicates were tested for each condition. The vehicle control was 0.5% DMSO, and the positive control was chlorpromazine (0.1, 0.3, 1, 3.16, 10, 31.6, or 100 μM in DMSO). Cellular ATP content was measured in the cell lysate on Days 7 or 14 of treatment. LDH release was measured in the cell supernatant on Days 4 and 7 or on Days 5, 9, and 14 and normalized to lysed controls.
as §1

HepG2 cells = assay: HepG2 72-h cytotoxicity assay (glucose medium, ATP content); format: cell-based, human
Procedure: Cytotoxicity of TAK-994 was evaluated in glucose or galactose medium after 24 h and in glucose medium after 72 h in HepG2 cells, with cryopreserved HepG2 cells thawed and seeded onto assay plates at 5,000 cells/well in glucose or galactose medium for the 24-h assay and at 2,500 cells/well in glucose medium for the 72-h assay. After ∼24 h of incubation at 37 °C in 5% CO2, the cells were incubated with test solutions under the same conditions for 24 h for the plate with 5,000 cells/well or 72 h for the plate with 2,500 cells/well. Cytotoxicity of TAK-994 was also assessed using HepG2 cells with CYP3A4 overexpression using a lentivirus vector. HepG2/CYP3A4 cells were incubated in media containing TAK-994 (0.09 to 200 μM), positive control aflatoxin B1 (0.04 to 80 μM), or 1.0% DMSO (negative control). In both cytotoxicity assays, adenosine triphosphate (ATP) content was assessed after incubation using a commercial luminescence assay (CellTiter-Glo; Promega Co., Ltd, WI, United States).
HepG2 cells (American Type Culture Collection [ATCC, VA, USA]) were acclimated to Dulbecco's Modified Eagle Medium (DMEM; Thermo Fisher Scientific, MA, USA) with either high glucose or high galactose and containing 10% FBS for 1 week then cryopreserved. The cryopreserved HepG2 cells were thawed, cultured for 24 hours, then seeded at 5000 cells/well in glucose or galactose medium for the 24-hour assay and at 2500 cells/well in glucose medium for the 72-hour assay onto the assay plates. After approximately 24 hours of incubation at 37°C in 5% CO2, the cells were incubated with test solutions under the same conditions for 24 hours for the plate with 5000 cells/well or 72 hours for the plate with 2500 cells/well. After the incubation, CellTiter-Glo® (Promega Co., Ltd., WI, USA) was added to the assay plates, cells were incubated for 30 minutes, and luminescence was recorded to measure the ATP content using an EnVision plate reader (PerkinElmer Co., Ltd., MA, USA). The test compound TAK-994 was evaluated at concentrations of 0.046, 0.14, 0.41, 1.2, 3.7, 11, 33, and 100 μM. Positive controls rotenone and staurosporine were purchased from FUJIFILM Wako Pure Chemical Corporation (Osaka, Japan) and evaluated at concentrations of 0.046, 0.14, 0.41, 1.2, 3.7, 11, 33, and 100 μM in DMSO (rotenone) or 0.0046, 0.014, 0.041, 0.12, 0.37, 1.1 , 3.3, and 10 μM in DMSO (staurosporine). Two experiments were conducted at each concentration.
Inhibition rate (%) = (1-mean of sample values / mean of Max values) × 100, where Max values = vehicle control.

CC(C)(O)C(=O)N1CC[C@H](NS(C)(=O)=O)[C@@H]1Cc1cccc(-c2cc(F)cc(F)c2)c1F.CC(C)(O)C(=O)N1CC[C@H](NS(C)(=O)=O)[C@@H]1Cc1cccc(-c2cc(F)cc(F)c2)c1F.O.O.O [TAK-994]
changes to mitochondrial respiration (media acidification and oxygen consumption rate) (HepG2): no TAK-994-induced changes to mitochondrial respiration
sensitization of liver microtissues by free fatty acids [1]: no increased sensitivity
loss of cellular ATP (Hepatocyte spheroids; 100 µM TAK-994, absence of nonparenchymal cells): ~50%
IC50 (Hepatocyte spheroids; cellular ATP, read-out: IC50, hepatocyte spheroids (Fig. 2B)): > 100 µM
IC50 (HepG2 cells): > 100 µM
cytotoxicity margin (Cmax/IC50) (HepG2 cells): > 100 ×
top test concentration (100 µM) relative to Cmax in patients (HepG2 cells; human): ~100 fold
